Results published in paper PMC5131496, “In vitro and in vivo anti-malarial activity of novel harmine-analog heat shock protein 90 inhibitors: a possible partner for artemisinin” (Malaria Journal, 2016).

Molecular target: T1, P. falciparum heat shock protein 90 (PfHsp90) (Plasmodium falciparum, UniProt Q8IC05)
T1 construct: gene PF3D7_0708400
Test: bis-ANS fluorescence competitive binding assay with purified recombinant GHKL domain

T1 sequence (Q8IC05 1-211 limits assumed): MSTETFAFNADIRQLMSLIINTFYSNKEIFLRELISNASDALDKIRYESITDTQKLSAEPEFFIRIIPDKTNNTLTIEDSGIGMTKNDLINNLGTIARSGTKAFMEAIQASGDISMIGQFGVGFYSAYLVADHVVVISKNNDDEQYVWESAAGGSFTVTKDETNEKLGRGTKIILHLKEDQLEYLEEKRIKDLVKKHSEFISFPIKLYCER

Compound | IC50
CC1NCCc2c1[nH]c1ccc(Br)cc21 (centres unmarked) [21A] | 23.1 ± 8.8 µM
CC1NCCc2c1[nH]c1ccc(Cl)cc21 (centres unmarked) [17A] | 12.2 ± 2.3 µM
